Results reported in ChEMBL document CHEMBL5143637, “Design, synthesis and antibacterial activity against pathogenic mycobacteria of conjugated hydroxamic acids, hydrazides and O-alkyl/O-acyl protected hydroxamic derivatives” (Bioorg Med Chem Lett, 2022).
Converted amounts (≈) assume the structure as drawn.

Key:
[1] = test system: Mycobacteroides abscessus; assay: Antimycobacterial activity against Mycobacterium abscessus CIP104536T with smooth morphotype assessed as inhibition of mycobacterial growth incubated for 3 to 5 days by resazurin microtiter assay; assay type: functional; conditions: time 3-5 day
[2] = test system: Mycobacterium tuberculosis; assay: Antimycobacterial activity against Mycobacterium tuberculosis mc2 6230 assessed as inhibition of mycobacterial growth incubated for 10 to 14 days by resazurin microtiter assay; assay type: functional; conditions: time 10-14 day
Mycobacterium marinum = assay: Antimycobacterial activity against Mycobacterium marinum ATCC BAA-535/M assessed as inhibition of mycobacterial growth incubated for 10 to 14 days by resazurin microtiter assay; assay type: functional; conditions: time 10-14 day
[3] = Cytotoxicity against C57BL/6 mouse BMDM cells assessed as reduction in cell viability measured after 24 hrs by resazurin dye based assay; assay type: toxicity; conditions: C57BL/6, mouse, BMDM cells (bone marrow-derived macrophages)
[4] = test system: Mycobacteroides abscessus; assay: Antimycobacterial activity against Mycobacterium abscessus CIP104536T with rough morphotype assessed as inhibition of mycobacterial growth incubated for 3 to 5 days by resazurin microtiter assay; assay type: functional; conditions: time 3-5 day

| Structure (SMILES) | MIC50 [1] [µg/mL] | MIC50 [2] [µg/mL] | MIC50 (Mycobacterium marinum) [µg/mL] | MIC90 (Mycobacterium marinum) [µg/mL] | CC50 at 24 h [3] [µg/mL] | MIC50 [4] [µg/mL] | MIC90 [2] [µg/mL] | MIC90 [4] [µg/mL] | MIC90 [1] [µg/mL] |
| --- | --- | --- | --- | --- | --- | --- | --- | --- | --- |
| NNC(=O)/C=C/c1ccc(F)cc1 | > 100 | > 100 | 60.5 (≈ 336 µM) | 80.4 (≈ 446 µM) | < 10 | > 100 | – | – | – |
| NNC(=O)/C=C/c1cccc(C(F)(F)F)c1 | > 100 | 40.5 (≈ 176 µM) | > 100 | – | > 125 | 51.4 (≈ 223 µM) | 65.7 (≈ 285 µM) | 55.7 (≈ 242 µM) | – |
| COc1ccc(/C=C/C=C/C(=O)NO)cc1 | > 100 | 48 (≈ 219 µM) | 14.8 (≈ 67.5 µM) | 62.1 (≈ 283 µM) | < 10 | > 100 | > 100 | – | – |
| CCCCCC(=O)ONC(=O)/C=C/C=C/c1ccc(F)cc1 | > 100 | 21.6 (≈ 70.7 µM) | 19.8 (≈ 64.8 µM) | 92.9 (≈ 304 µM) | < 10 | > 100 | 40.7 (≈ 133 µM) | – | – |
| NNC(=O)/C=C/C=C/c1ccc(C(F)(F)F)cc1 | > 100 | 23.7 (≈ 92.5 µM) | > 100 | – | > 125 | 5.7 (≈ 22.2 µM) | > 100 | 19.4 (≈ 75.7 µM) | – |
| O=C(/C=C/c1ccc(F)cc1)NO | > 100 | 47.3 (≈ 261 µM) | 3.5 (≈ 19.3 µM) | 23.9 (≈ 132 µM) | < 10 | > 100 | 55.4 (≈ 306 µM) | – | – |
| NNC(=O)/C=C/c1ccc(C(F)(F)F)cc1 | > 100 | 20.4 (≈ 88.6 µM) | > 100 | – | > 125 | 46 (≈ 200 µM) | 44.2 (≈ 192 µM) | 46.8 (≈ 203 µM) | – |
| O=C(/C=C/C=C/c1ccc(F)cc1)NO | > 100 | > 100 | 18.1 (≈ 87.4 µM) | > 100 | < 10 | > 100 | – | – | – |
| O=C(/C=C/C=C/c1ccccc1)NO | > 100 | > 100 | 14.9 (≈ 78.7 µM) | 91.4 (≈ 483 µM) | < 10 | > 100 | – | – | – |
| O=C(/C=C/C=C/c1ccc(C(F)(F)F)cc1)NO | > 100 | 28.8 (≈ 112 µM) | > 100 | – | < 10 | 5.5 (≈ 21.4 µM) | 80.6 (≈ 313 µM) | 10.9 (≈ 42.4 µM) | – |
| O=C(CCc1ccccc1)NO | > 100 | > 100 | 11.9 (≈ 72 µM) | 89.3 (≈ 541 µM) | 95 (≈ 575 µM) | > 100 | – | – | – |
| O=C(/C=C/c1ccc(-c2ccccc2)cc1)NO | > 100 | 20.6 (≈ 86.1 µM) | 20.8 (≈ 86.9 µM) | 68.6 (≈ 287 µM) | 16 (≈ 66.9 µM) | > 100 | > 100 | – | – |
| COc1ccc(/C=C/C=C/C(=O)NN)cc1 | > 100 | 18.1 (≈ 82.9 µM) | 12.6 (≈ 57.7 µM) | 13.3 (≈ 60.9 µM) | 120 (≈ 550 µM) | > 100 | 46.7 (≈ 214 µM) | – | – |
| CCCCCCCOc1ccc(/C=C/C=C/C(=O)NO)cc1 | > 100 | > 100 | 48.3 (≈ 159 µM) | 68.3 (≈ 225 µM) | 67 (≈ 221 µM) | > 100 | – | – | – |
| CCCCCCCCCCOc1ccc(/C=C/C=C/C(=O)NO)cc1 | > 100 | > 100 | > 100 | – | > 125 | > 100 | – | – | – |
| NNC(=O)/C=C/C=C/c1cccc(F)c1 | > 100 | > 100 | > 100 | – | > 125 | > 100 | – | – | – |

| Structure (SMILES) | MIC50 [1] [µg/mL] | MIC50 [2] [µg/mL] | MIC50 (Mycobacterium marinum) [µg/mL] | MIC90 (Mycobacterium marinum) [µg/mL] | CC50 at 24 h [3] [µg/mL] | MIC50 [4] [µg/mL] | MIC90 [2] [µg/mL] | MIC90 [4] [µg/mL] | MIC90 [1] [µg/mL] |
| --- | --- | --- | --- | --- | --- | --- | --- | --- | --- |
| NNC(=O)/C=C/C=C/c1ccc(F)cc1 | > 100 | 27.4 (≈ 133 µM) | 20.6 (≈ 99.9 µM) | > 100 | > 125 | > 100 | > 100 | – | – |
| CCCCCCONC(=O)/C=C/C=C/c1ccc(F)cc1 | > 100 | > 100 | 37.1 (≈ 127 µM) | > 100 | > 125 | > 100 | – | – | – |
| NNC(=O)/C=C/c1ccc2c(c1)OCO2 | > 100 | > 100 | > 100 | – | 123 (≈ 597 µM) | > 100 | – | – | – |
| O=C(/C=C/C=C/c1cccc(C(F)(F)F)c1)NO | 52.3 (≈ 203 µM) | 50.5 (≈ 196 µM) | 10.1 (≈ 39.3 µM) | > 100 | < 10 | 4.4 (≈ 17.1 µM) | > 100 | 7 (≈ 27.2 µM) | > 100 |
| CCCCCCCOc1ccc(/C=C/C=C/C(=O)NN)cc1 | 26.6 (≈ 88 µM) | 27 (≈ 89.3 µM) | > 100 | – | 64 (≈ 212 µM) | 9.7 (≈ 32.1 µM) | 29.1 (≈ 96.2 µM) | 26.1 (≈ 86.3 µM) | > 100 |
| CCCCCCCCCC(=O)ONC(=O)/C=C/C=C/c1ccc(F)cc1 | > 100 | 20.3 (≈ 56.2 µM) | 13.2 (≈ 36.5 µM) | 17.3 (≈ 47.9 µM) | > 125 | > 100 | 34.7 (≈ 96 µM) | – | – |
| CCCCOc1ccc(/C=C/C=C/C(=O)NO)cc1 | 27.2 (≈ 104 µM) | 38.6 (≈ 148 µM) | > 100 | – | > 125 | > 100 | > 100 | – | 59.3 (≈ 227 µM) |
| COc1ccc(/C=C/C(=O)NO)cc1 | > 100 | 23.1 (≈ 120 µM) | 58.2 (≈ 301 µM) | 89.5 (≈ 463 µM) | < 10 | > 100 | 24.3 (≈ 126 µM) | – | – |
| NNC(=O)/C=C/c1cccc(F)c1 | > 100 | 65.8 (≈ 365 µM) | 41.1 (≈ 228 µM) | > 100 | > 125 | > 100 | > 100 | – | – |
| CCCCCC(=O)ONC(=O)/C=C/C=C/c1ccc(OC)cc1 | > 100 | 13.8 (≈ 43.5 µM) | 26.8 (≈ 84.4 µM) | 54.5 (≈ 172 µM) | < 10 | > 100 | 22.9 (≈ 72.2 µM) | – | – |
| O=C(/C=C/C=C/c1cccc(F)c1)NO | 36.8 (≈ 178 µM) | 7.6 (≈ 36.7 µM) | 7.5 (≈ 36.2 µM) | 39.3 (≈ 190 µM) | < 10 | 6 (≈ 29 µM) | > 100 | 19 (≈ 91.7 µM) | > 100 |
| CCCCCCCCc1ccc(/C=C/C=C/C(=O)NO)cc1 | > 100 | > 100 | 49.4 (≈ 164 µM) | > 100 | < 10 | > 100 | – | – | – |
| O=C(/C=C/c1ccc2c(c1)OCO2)NO | > 100 | 31.9 (≈ 154 µM) | > 100 | – | 34 (≈ 164 µM) | > 100 | > 100 | – | – |
| O=C(/C=C/c1ccncc1)NO | > 100 | 35.1 (≈ 214 µM) | 75 (≈ 457 µM) | > 100 | < 10 | > 100 | 42.9 (≈ 261 µM) | – | – |
| O=C(/C=C/c1cccc(C(F)(F)F)c1)NO | 72.5 (≈ 314 µM) | 12.8 (≈ 55.4 µM) | 7.1 (≈ 30.7 µM) | 47.7 (≈ 206 µM) | < 10 | 7.8 (≈ 33.7 µM) | > 100 | 16 (≈ 69.2 µM) | 74.8 (≈ 324 µM) |
